According to patent US6403656B1, “Use of ppar-γ activators in dermatology” (Galderma Research & Development S.N.C, priority 1997, dated 2002):

Columns and labels:
[1] = target: T1, PPARα (Homo sapiens, UniProt Q07869); test: Transactivation test (luciferase reporter, cotransfected HeLa cells) via PPARα; settings: read-out: AC50 (nM) − PPARα; HeLa cells cotransfected with receptor expression vector and PPRE-luciferase reporter, treated for 24 hours
T1 sequence (Q07869 1-468): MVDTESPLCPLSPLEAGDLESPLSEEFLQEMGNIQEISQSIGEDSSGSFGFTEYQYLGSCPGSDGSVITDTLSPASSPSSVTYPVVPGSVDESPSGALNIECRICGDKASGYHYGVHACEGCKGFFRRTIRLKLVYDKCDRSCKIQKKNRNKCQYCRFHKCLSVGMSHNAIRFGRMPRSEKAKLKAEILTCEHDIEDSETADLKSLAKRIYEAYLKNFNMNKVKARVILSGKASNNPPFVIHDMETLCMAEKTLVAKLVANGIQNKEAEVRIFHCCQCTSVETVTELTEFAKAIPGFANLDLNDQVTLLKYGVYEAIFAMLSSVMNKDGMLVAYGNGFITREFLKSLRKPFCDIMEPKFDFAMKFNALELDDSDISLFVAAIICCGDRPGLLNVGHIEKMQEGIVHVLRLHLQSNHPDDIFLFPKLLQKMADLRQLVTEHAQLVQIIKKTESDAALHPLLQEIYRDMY

[2] = system: keratinocytes; test: Determination of the keratinocyte proliferation (BrdU incorporation); settings: statement in words
[3] = target: T2, PPARγ (Homo sapiens, UniProt P37231); test: Transactivation test (luciferase reporter, cotransfected HeLa cells) via PPARγ
T2 sequence (P37231 1-505): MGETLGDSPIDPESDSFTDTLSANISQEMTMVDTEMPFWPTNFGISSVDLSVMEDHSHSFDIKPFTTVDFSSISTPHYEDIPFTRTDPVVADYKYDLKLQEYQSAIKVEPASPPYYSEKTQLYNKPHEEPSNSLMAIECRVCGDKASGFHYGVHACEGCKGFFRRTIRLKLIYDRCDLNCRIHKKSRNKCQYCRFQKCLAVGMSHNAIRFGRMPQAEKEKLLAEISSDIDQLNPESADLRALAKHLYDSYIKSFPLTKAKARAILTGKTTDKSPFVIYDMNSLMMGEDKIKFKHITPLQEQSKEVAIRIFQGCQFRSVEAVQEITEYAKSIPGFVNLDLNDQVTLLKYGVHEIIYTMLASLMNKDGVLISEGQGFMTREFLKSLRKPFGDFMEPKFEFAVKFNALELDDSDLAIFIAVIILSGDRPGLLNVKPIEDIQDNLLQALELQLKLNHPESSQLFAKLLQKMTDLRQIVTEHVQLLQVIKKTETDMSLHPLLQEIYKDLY

| AC50 [1] | R1 (ratio of AC50 relative to PPAR-γ over AC50 relative to PPARα) ([3]; AC50 PPARγ / AC50 PPARα) | AC50 ([3]; read-out: AC50 (nM) − PPARγ, HeLa cells cotransfected with receptor expression vector and PPRE-luciferase reporter, treated for 24 hours) | SMILES | inhibitory activity on the proliferation of keratinocytes [2] |
| --- | --- | --- | --- | --- |
| 4600 nM |  |  | CCOC(Cc1ccc(OCCN(C)c2nc3ccccc3o2)cc1)C(=O)O (single isomer, unassigned; (+)) [Compound C, (+)-3-{4-[2-(benzoxazol-2-ylmethylamino)-ethoxy]phenyl}-2-ethyoxypropionic acid] |  |
| 1450 nM |  |  | CCOC(Cc1ccc(OCCN(C)c2nc3ccccc3o2)cc1)C(=O)O (single isomer, unassigned; (-)) [Compound D, (−)-3-{4-[2-(benzooxazol-2-ylmethylamino)-ethoxy]phenyl}-2-ethyoxypropionic acid] |  |
|  |  |  | CN(CCOc1ccc(CC2SC(=O)NC2=O)cc1)c1ccccn1 (stereo not shown) [Compound A, 5-{4-[2-(methylpyrid-2-ylamino)-ethoxy]benzyl}thiazolidine-2,4-dione] | weak, or even no inhibitory activity |
| 2200 nM | 0.082 | 180 nM | CCCCC/C=C/C=C1/C(=O)C=CC1C/C=C\CCCC(=O)O (stereo not shown) [Compound E, 15-deoxy-Δ^12,14-prostaglandin J2(15-d PGJ2)] | weak, or even no inhibitory activity |
